# Reference: ChEMBL document CHEMBL3132819, “2-Hydroxy-substituted cinnamic acids and acetanilides are selective growth inhibitors of Mycobacterium tuberculosis” (Medchemcomm, 2014)
# Test system: Mycobacterium tuberculosis variant bovis BCG
# Experiment: Antibacterial activity against Mycobacterium bovis BCG ATCC 35734 after 2 weeks by spot culture growth inhibition assay
# Format: functional
# Details: ATCC 35734, 336 h
row,SMILES,MIC [µM]
1,O=C(O)/C=C/c1ccc2c(c1)OCO2,416
2,CC(=O)Nc1ccccc1O,132
3,COC(=O)/C=C/c1cccc(O)c1,561
4,CC(C)=CCC/C(C)=C/COc1ccc(/C=C/C(=O)O)cc1,134
5,COC(=O)/C=C/c1ccc(OC/C=C(\C)CCC=C(C)C)cc1,254
6,COC(=O)/C=C/c1ccc(OCC=C(C)C)cc1,60.9
7,COC(=O)/C=C/c1cccc(OCC=C(C)C)c1,244
8,COC(=O)/C=C/c1ccccc1OCC=C(C)C,> 406
9,CC(C)=CCOc1cccc(/C=C/C(=O)O)c1,258
10,CC(C)=CCOc1ccccc1/C=C/C(=O)O,258
11,CC(C)=CCOc1ccc(/C=C/C(=O)O)cc1,86.1
12,COC(=O)/C=C/c1ccccc1O,112
13,O=C(O)/C=C/c1cccc(O)c1,609
14,CC(=O)Nc1ccc(O)cc1 [ACETAMINOPHEN],> 661
15,O=C(O)/C=C/c1ccccc1 [CINNAMIC ACID],405
16,O=C(O)/C=C/c1ccc(O)cc1 [COUMARIC ACID],366
17,NNC(=O)c1ccncc1 [ISONIAZID],0.73
18,CC(=O)Nc1cccc(O)c1 [METACETAMOL],> 661
19,COC(=O)/C=C/c1ccc(O)cc1 [METHYL P-HYDROXYCINNAMATE],337
20,O=C(O)/C=C/c1ccccc1O [O-COUMARIC ACID],244
21,CO[C@H]1/C=C/O[C@@]2(C)Oc3c(C)c(O)c4c(O)c(c(/C=N/N5CCN(C)CC5)c(O)c4c3C2=O)NC(=O)/C(C)=C\C=C\[C@H](C)[C@H](O)[C@@H](C)[C@@H](O)[C@@H](C)[C@H](OC(C)=O)[C@@H]1C [RIFAMPIN],0.0607
